Results from patent US9732075B2, “Benzimidazole-proline derivatives” (IDORSIA PHARMACEUTICALS LTD, priority 2012, dated 2017).

Columns and labels:
[1] = biological target: human orexin-2 receptor (Homo sapiens (Human), UniProt O43614); assay: In vitro assay: intracellular calcium measurements (FLIPR), antagonistic activity; assay type: cell-based; conditions: CHO cells expressing human orexin-2 receptor, orexin-A agonist, geometric mean, read-out: IC50 Ox2
Method in brief: (§1)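 IC50s are geometric means, possibly reference-normalized, from FLIPR calcium peaks in CHO cells bearing human orexin-1 or orexin-2 receptor. Fluo-4 AM/probenecid-loaded cells received antagonist for 120 min before challenge with orexin-A (final 3 nM, ~EC70), with responses compared against vehicle controls.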

[2] = biological target: human orexin-1 receptor (Homo sapiens (Human), UniProt O43613); assay: as above; assay type: cell-based; conditions: CHO cells expressing human orexin-1 receptor, orexin-A agonist, geometric mean, read-out: IC50 Ox1
Method in brief: as §1

Chain of human orexin-2 receptor (O43614 whole entry): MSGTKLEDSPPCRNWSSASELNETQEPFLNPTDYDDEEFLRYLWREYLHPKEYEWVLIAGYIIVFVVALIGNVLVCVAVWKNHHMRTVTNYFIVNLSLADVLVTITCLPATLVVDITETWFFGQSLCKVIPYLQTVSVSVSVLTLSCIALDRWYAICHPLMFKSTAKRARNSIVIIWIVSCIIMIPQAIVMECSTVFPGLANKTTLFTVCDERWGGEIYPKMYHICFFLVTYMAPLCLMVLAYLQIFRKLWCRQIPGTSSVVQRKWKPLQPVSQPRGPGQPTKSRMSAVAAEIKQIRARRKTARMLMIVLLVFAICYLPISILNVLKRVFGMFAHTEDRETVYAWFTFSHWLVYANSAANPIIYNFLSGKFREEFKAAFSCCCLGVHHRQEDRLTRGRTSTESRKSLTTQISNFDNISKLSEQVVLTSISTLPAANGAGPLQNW
Chain of human orexin-1 receptor (O43613 whole entry): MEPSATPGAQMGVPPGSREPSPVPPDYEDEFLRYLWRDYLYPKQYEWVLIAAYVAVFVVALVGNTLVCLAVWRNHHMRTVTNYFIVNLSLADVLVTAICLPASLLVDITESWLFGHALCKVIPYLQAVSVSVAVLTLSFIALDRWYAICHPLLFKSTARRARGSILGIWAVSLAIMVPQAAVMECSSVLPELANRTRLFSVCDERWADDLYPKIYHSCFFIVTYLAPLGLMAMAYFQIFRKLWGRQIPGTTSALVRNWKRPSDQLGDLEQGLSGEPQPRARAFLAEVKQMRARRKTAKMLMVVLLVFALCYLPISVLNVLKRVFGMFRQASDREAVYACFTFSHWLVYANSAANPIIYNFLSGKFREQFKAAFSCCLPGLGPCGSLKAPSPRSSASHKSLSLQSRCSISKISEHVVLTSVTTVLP

IC50 [1] [nM] | IC50 [2] [nM] | SMILES
56 | 124 | CSc1ccc2nc([C@@H]3CCCN3C(=O)c3nc(C)sc3-c3ccc(Br)cc3)[nH]c2c1 [Ex. 1.34]
287 | 76 | Cc1nc(C(=O)N2CCCC2c2nc3cc(C(F)(F)F)ccc3[nH]2)c(-c2ccccc2)s1 (stereo not drawn) [Ex. 1.121]
1 | 2 | C=C1CC(c2nc3c(C)cc(C)cc3[nH]2)N(C(=O)c2nc(C3CC3)sc2-c2cccc(C)c2)C1 (stereo not drawn) [Ex. 6.91]
1 | 5 | C=C1C[C@@H](c2nc3cc(Cl)c(C)cc3[nH]2)N(C(=O)c2nc(C)sc2-c2ccc(C)c(C)c2)C1 [Ex. 6.55]
2 | 1 | CO[C@@H]1C[C@@H](c2nc3c(C)c(Cl)ccc3[nH]2)N(C(=O)c2nc(C)sc2-c2cccc(Cl)c2)C1 [Ex. 3.9]
34 | 13 | C=C1CN(C(=O)c2nc(C)sc2-c2ccc(OC)cc2)C(C)(c2nc3cc(OC)ccc3[nH]2)C1 (stereo not drawn) [Ex. 6.147]
136 | 10 | COc1cccc(-c2sc(C)nc2C(=O)N2CCC[C@@]2(C)c2nc3cc(OC(F)(F)F)ccc3[nH]2)c1 [Ex. 5.247]
47 | 308 | C=C1C[C@@H](c2nc3cc(OC)ccc3[nH]2)N(C(=O)c2cncnc2-c2cccc(C)c2)C1 [Ex. 6.17]
4 | 3 | Cc1ccc(-c2cccc(F)c2)c(C(=O)N2CCC[C@@]2(C)c2nc3c(C)c(C)ccc3[nH]2)c1 [Ex. 5.109]
48 | 61 | CSc1cccc2nc([C@@H]3CCCN3C(=O)c3nc(C)sc3-c3ccc(Br)cc3)[nH]c12 [Ex. 1.60]
329 | 13 | Cc1c(Cl)ccc2[nH]c([C@]3(C)CCCN3C(=O)c3nc(-c4cccc(Cl)c4)sc3-c3ccc(F)cc3)nc12 [Ex. 5.257]
2080 | 4 | Cc1nc(C(=O)N2CC[C@H](C)[C@H]2c2nc3cc(C)c(C)cc3[nH]2)c(-c2ccc(Cl)cc2)s1 [Ex. 4.87]
8 | 8 | COc1ccc(-c2sc(C)nc2C(=O)N2C[C@H](OC)C[C@H]2c2nc3ccc(Cl)c(C)c3[nH]2)cc1 [Ex. 3.37]
475 | 6 | COc1cccc(-c2sc(C)nc2C(=O)N2CC[C@H](C)[C@H]2c2nc3c(Cl)cccc3[nH]2)c1 [Ex. 4.121]
2380 | 43 | Cc1nc(C(=O)N2CC[C@H](C)[C@H]2c2nc3c(Cl)cccc3[nH]2)c(-c2ccc(F)c(F)c2)s1 [Ex. 4.126]
42 | 33 | CCn1c([C@]2(C)CCCN2C(=O)c2cc(C)ccc2-n2nccn2)nc2cc(OC)c(OC)cc21 [Ex. 7.10]
16 | 12 | COc1ccc(-c2ccc(C)cc2C(=O)N2CCC[C@@]2(C)c2nc3c(C)c(C)ccc3[nH]2)cc1 [Ex. 5.112]
103 | 814 | C=C1C[C@@H](c2nc3cc(OC)ccc3[nH]2)N(C(=O)c2ncsc2-c2cccc(Cl)c2)C1 [Ex. 6.32]
12 | 6 | Cc1ccc(-n2nccn2)c(C(=O)N2C[C@H](F)C[C@H]2c2nc3c(C)c(Cl)ccc3[nH]2)c1 [Ex. 2.5]
2780 | 2 | Cc1nc(C(=O)N2CC[C@H](C)[C@H]2c2nc3cc(C(F)(F)F)ccc3[nH]2)c(-c2cccc(Cl)c2)s1 [Ex. 4.9]
50 | 23 | CCn1c([C@]2(C)CCCN2C(=O)c2cc(C)c(C)cc2-n2nccn2)nc2cc(OC)c(OC)cc21 [Ex. 7.14]
38 | 32 | C=C1CN(C(=O)c2nc(C)sc2-c2ccccc2)C(C)(c2nc3cc(OC)ccc3[nH]2)C1 (racemic) [Ex. 6.154]
58 | 97 | CSc1ccc2nc([C@@H]3CCCN3C(=O)c3nc(C)sc3-c3cccc(Cl)c3)[nH]c2c1 [Ex. 1.43]

SMILES | IC50 [1] [nM] | IC50 [2] [nM]
Cc1c(Cl)ccc2[nH]c([C@]3(C)CCCN3C(=O)c3cc(Cl)ccc3-n3nccn3)nc12 [Ex. 5.34] | 9 | 2
